Assay [1] is described as follows: Compound was evaluated for the inhibition of […] I-CCK-8 binding at Cholecystokinin type B receptor on guinea pig cerebral cortical membranes.
A short description of assay [2]: Compound was evaluated for the inhibition of […] I-CCK-8 binding at CCK-B receptor Cholecystokinin type B receptor cerebral cortical membranes.

Drawing on BindingDB's records for doi:10.1016/s0960-894x(98)00237-6 (Fujisawa Pharmaceutical, 1999), this text covers IC50 for three compounds.

As to `O=C(Nc1cccc(-c2nnn[nH]2)c1)NC1N=C(c2ccccc2F)c2ccccc2N(CC(=O)N2CC3CCC(CC3)C2)C1=O` (stereo not drawn) [1-[1-[2-(3-Aza-bicyclo[3.2.2]non-3-yl)-2-oxo-ethyl]-5-(2-fluoro-phenyl)-2-oxo-2,3-dihydro-1H-benzo[e][1,4]diazepin-3-yl]-3-[3-(1H-tetrazol-5-yl)-phenyl]-urea], in assay [1], the IC50 (usually the point on the concentration scale where inhibition reaches its midpoint) was found to be 0.087 nM.
Consider `O=C(Nc1cccc(-c2nnn[nH]2)c1)NC1N=C(c2ccccc2F)c2cccc(Cl)c2N(CC(=O)N2CC3CCC(CC3)C2)C1=O` (stereo not drawn) [1-[1-[2-(3-Aza-bicyclo[3.2.2]non-3-yl)-2-oxo-ethyl]-9-chloro-5-(2-fluoro-phenyl)-2-oxo-2,3-dihydro-1H-benzo[e][1,4]diazepin-3-yl]-3-[3-(1H-tetrazol-5-yl)-phenyl]-urea], for which the IC50 in assay [2] came out at 0.66 nM.
In assay [1], `CCc1cccc2c1N(CC(=O)N1CC3CCC(CC3)C1)C(=O)C(NC(=O)Nc1cccc(-c3nnn[nH]3)c1)N=C2c1ccccc1F` (stereo not drawn) [1-[1-[2-(3-Aza-bicyclo[3.2.2]non-3-yl)-2-oxo-ethyl]-9-ethyl-5-(2-fluoro-phenyl)-2-oxo-2,3-dihydro-1H-benzo[e][1,4]diazepin-3-yl]-3-[3-(1H-tetrazol-5-yl)-phenyl]-urea] displayed an IC50 of 0.81 nM.
